Measured values reported in ChEMBL document CHEMBL4334438, “Discovery of novel glycogen synthase kinase-3α inhibitors: Structure-based virtual screening, preliminary SAR and biological evaluation for treatment of acute myeloid leukemia” (Eur J Med Chem, 2019).

Assays:
[1] = test system: Tyrosine-protein kinase BTK (Homo sapiens), Q06187 [R28H]; test: Inhibition of recombinant full length human BTK R28H mutant assessed as residual activity at 1 uM using LSNLYHQGKFLQTFCGSPLYRRR as substrate incubated for 40 mins in presence of [gamma-33ATP] by scintillation counting based radiometry assay relative to control
Tyrosine-protein kinase BTK (Homo sapiens), Q06187 [R28H], sequence (Q06187 whole entry R28H): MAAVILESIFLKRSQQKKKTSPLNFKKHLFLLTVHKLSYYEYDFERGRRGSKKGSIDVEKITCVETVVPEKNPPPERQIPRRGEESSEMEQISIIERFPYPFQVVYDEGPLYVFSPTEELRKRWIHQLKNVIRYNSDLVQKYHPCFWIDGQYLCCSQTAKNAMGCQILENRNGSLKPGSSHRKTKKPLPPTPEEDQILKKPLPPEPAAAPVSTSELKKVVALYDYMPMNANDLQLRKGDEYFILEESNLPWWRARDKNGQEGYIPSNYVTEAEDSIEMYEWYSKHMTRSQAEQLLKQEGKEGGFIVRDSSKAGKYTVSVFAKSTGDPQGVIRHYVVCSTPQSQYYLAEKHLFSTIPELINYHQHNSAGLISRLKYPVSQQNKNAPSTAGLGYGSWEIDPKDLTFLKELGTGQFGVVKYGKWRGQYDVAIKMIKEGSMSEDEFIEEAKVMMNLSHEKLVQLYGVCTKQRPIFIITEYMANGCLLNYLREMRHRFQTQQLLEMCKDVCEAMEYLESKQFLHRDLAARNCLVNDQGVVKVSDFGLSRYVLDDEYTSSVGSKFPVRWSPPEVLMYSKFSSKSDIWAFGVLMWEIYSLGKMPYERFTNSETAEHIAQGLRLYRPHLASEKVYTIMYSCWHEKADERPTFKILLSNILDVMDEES

[2] = target: Calcium/calmodulin-dependent protein kinase type 1G (Homo sapiens) (UniProt Q96NX5); test: Inhibition of recombinant full length human CaMKIgamma assessed as residual activity at 1 uM using KKLRRTLSFAEPG as substrate incubated for 40 mins in presence of [gamma-33ATP] by scintillation counting based radiometry assay relative to control
Calcium/calmodulin-dependent protein kinase type 1G (Homo sapiens), sequence (Q96NX5 whole entry): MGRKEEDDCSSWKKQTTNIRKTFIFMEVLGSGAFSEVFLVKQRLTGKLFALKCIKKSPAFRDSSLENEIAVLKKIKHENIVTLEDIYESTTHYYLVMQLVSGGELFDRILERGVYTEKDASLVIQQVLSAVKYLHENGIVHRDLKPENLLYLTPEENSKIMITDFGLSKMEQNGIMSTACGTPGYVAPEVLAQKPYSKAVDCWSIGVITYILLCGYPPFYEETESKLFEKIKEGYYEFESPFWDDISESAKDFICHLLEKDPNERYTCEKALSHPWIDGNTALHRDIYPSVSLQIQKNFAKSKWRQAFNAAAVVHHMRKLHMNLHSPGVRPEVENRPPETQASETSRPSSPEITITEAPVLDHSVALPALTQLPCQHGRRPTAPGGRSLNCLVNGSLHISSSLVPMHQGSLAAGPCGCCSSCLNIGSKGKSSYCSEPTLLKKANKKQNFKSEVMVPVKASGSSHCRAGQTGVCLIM

[3] = target: Cyclin-dependent kinase 5/CDK5 activator 1 (Homo sapiens) (UniProt Q00535+Q15078); test: Inhibition of recombinant full length human CDK5/p35 assessed as residual activity at 1 uM using histone H1 as substrate incubated for 40 mins in presence of [gamma-33ATP] by scintillation counting based radiometry assay relative to control; assay type: protein-complex assay
Cyclin-dependent kinase 5/CDK5 activator 1 (Homo sapiens), sequence (Q00535 whole entry): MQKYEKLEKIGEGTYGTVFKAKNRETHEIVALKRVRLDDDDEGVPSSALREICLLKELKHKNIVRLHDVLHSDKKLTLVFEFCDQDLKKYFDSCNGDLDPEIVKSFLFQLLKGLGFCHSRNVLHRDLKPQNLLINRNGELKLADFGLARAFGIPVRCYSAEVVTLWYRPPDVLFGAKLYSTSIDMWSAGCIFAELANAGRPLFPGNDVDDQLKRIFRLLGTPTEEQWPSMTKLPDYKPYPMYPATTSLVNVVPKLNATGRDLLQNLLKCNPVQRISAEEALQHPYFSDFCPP
Cyclin-dependent kinase 5/CDK5 activator 1 (Homo sapiens), sequence (Q15078 99-307 partner limits assumed): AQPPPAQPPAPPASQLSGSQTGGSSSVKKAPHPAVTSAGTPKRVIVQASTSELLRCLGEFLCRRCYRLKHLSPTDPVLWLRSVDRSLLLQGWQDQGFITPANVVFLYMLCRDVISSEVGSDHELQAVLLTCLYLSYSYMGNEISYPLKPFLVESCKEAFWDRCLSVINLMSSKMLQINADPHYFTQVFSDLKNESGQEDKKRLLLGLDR

[4] = target: Cyclin-dependent kinase 14/Cyclin-Y (Homo sapiens) (UniProt O94921+Q8ND76); test: Inhibition of recombinant full length human CDK14/cyclinY assessed as residual activity at 1 uM in presence of [gamma-33ATP] by scintillation counting based radiometry assay relative to control; assay type: protein-complex assay
[5] = test system: Casein kinase I isoform gamma-3 (Homo sapiens), Q9Y6M4 [UNDEFINED MUTATION]; test: Inhibition of recombinant human CK1gamma3 K91E/R174G/E302D mutant (1 to 330 residues) assessed as residual activity at 1 uM using KRRRALS(p)VASLPGL as substrate incubated for 40 mins in presence of [gamma-33ATP] by scintillation counting based radiometry assay relative to control
Casein kinase I isoform gamma-3 (Homo sapiens), Q9Y6M4 [UNDEFINED MUTATION], sequence (Q9Y6M4 whole entry, looked up, stated change not applied, the tested form may be a part, canonical isoform): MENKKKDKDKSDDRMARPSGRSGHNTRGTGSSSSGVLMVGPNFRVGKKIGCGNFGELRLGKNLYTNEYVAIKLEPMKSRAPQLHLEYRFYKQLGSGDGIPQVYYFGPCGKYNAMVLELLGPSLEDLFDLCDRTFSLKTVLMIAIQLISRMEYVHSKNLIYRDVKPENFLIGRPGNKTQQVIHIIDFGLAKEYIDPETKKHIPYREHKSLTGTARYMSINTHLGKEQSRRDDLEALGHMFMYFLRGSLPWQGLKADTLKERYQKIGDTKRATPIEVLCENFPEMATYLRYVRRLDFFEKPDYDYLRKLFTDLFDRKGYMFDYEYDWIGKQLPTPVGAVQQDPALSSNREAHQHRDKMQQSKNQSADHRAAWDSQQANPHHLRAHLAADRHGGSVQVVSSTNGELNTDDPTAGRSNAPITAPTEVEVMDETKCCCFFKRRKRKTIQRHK

[6] = target: Serine/threonine-protein kinase 35 (Homo sapiens) (UniProt Q8TDR2); test: Inhibition of recombinant full length human CLIK1 assessed as residual activity at 1 uM using RSRSRSRSRSRS as substrate incubated 40 mins in presence of [gamma-33ATP] by scintillation counting based radiometry assay relative to control
[7] = target: Mast/stem cell growth factor receptor Kit (Homo sapiens) (UniProt P10721); test: Inhibition of recombinant human c-Kit (544 to end residues) assessed as residual activity at 1 uM using poly(Glu, Tyr) 4:1 as substrate measured after 40 mins in presence of [gamma33P]ATP by scintillation counting method
[8] = target: Tyrosine-protein kinase CSK (Homo sapiens) (UniProt P41240); test: Inhibition of recombinant human CSK assessed as residual activity at 1 uM poly(Glu, Tyr) 4:1 as substrate incubated 40 mins in presence of [gamma-33ATP] by scintillation counting based radiometry assay relative to control
Tyrosine-protein kinase CSK (Homo sapiens), sequence (P41240 2-450 limits assumed): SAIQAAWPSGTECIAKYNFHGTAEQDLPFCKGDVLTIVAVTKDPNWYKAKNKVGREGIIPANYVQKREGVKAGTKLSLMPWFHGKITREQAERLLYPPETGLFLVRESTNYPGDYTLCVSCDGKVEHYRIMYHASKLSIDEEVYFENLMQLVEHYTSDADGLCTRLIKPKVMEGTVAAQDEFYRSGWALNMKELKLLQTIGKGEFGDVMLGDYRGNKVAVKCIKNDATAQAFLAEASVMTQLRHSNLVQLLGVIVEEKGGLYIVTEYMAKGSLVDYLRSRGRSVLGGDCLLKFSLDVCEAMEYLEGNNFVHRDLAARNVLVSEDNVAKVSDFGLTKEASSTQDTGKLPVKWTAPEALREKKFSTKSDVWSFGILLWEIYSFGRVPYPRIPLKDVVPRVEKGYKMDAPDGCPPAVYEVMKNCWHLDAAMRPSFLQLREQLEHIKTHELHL

[9] = target: Macrophage colony-stimulating factor 1 receptor (Homo sapiens) (UniProt P07333); test: Inhibition of recombinant human FMS (538 to end residues) assessed as residual activity at 1 uM using EEEEYEEEEEEYYIIEEEEEEYEEEEEEYYEEEEEEKKKK as substrate at 40 mins in presence of [gamma-33ATP] by scintillation counting based radiometry assay relative to control
[10] = target: Mitogen-activated protein kinase kinase kinase kinase 5 (Homo sapiens) (UniProt Q9Y4K4); test: Inhibition of recombinant human MAP4K5 assessed as residual activity at 1 uM using myelin basic protein as substrate incubated for 40 mins in presence of [gamma-33ATP by scintillation counting based radiometry assay relative to control
Mitogen-activated protein kinase kinase kinase kinase 5 (Homo sapiens), sequence (Q9Y4K4 whole entry, looked up): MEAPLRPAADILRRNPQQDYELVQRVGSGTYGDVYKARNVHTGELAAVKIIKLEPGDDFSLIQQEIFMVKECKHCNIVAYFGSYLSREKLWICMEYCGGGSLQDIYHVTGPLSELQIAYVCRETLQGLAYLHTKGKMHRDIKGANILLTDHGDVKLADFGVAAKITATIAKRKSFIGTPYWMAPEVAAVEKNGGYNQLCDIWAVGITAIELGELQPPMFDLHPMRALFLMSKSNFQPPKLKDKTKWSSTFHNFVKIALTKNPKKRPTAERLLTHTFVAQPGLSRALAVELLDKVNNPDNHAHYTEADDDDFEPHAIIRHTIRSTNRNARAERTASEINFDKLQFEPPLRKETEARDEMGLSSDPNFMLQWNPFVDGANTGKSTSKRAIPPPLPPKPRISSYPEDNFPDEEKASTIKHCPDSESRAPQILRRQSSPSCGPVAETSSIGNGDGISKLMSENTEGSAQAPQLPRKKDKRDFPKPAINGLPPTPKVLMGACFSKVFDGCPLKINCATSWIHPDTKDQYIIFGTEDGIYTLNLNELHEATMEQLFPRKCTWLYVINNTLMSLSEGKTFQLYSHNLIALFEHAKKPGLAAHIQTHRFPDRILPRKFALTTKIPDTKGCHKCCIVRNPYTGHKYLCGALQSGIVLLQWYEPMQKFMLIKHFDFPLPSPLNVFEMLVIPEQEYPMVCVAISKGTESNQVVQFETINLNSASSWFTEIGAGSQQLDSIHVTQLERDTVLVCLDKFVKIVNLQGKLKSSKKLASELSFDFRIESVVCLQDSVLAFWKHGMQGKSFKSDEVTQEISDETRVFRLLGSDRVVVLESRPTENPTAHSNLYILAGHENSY

[11] = test system: Hepatocyte growth factor receptor (Homo sapiens), P08581 [D1228N]; test: Inhibition of recombinant human MET A1209G/V1290L/D1246N mutant (974 to end residues) assessed as residual activity at 1 uM using KKKGQEEEYVFIE as substrate incubated for 40 mins in presence of [gamma-33ATP by scintillation counting based radiometry assay relative to control
[12] = target: Mitogen-activated protein kinase kinase kinase 11 (Homo sapiens) (UniProt Q16584); test: Inhibition of recombinant human MLK3 assessed as residual activity at 1 uM using by scintillation counting based radiometry assay relative to control
[13] = target: Serine/threonine-protein kinase 26 (Homo sapiens) (UniProt Q9P289); test: Inhibition of recombinant human MST4 (4 to 304 residues) assessed as residual activity at 1 uM using RLGRDKYKTLRQIRQ as substrate measured after 40 mins in presence of [gamma33P]ATP by scintillation counting method relative to control
Serine/threonine-protein kinase 26 (Homo sapiens), sequence (Q9P289 2-416 limits assumed): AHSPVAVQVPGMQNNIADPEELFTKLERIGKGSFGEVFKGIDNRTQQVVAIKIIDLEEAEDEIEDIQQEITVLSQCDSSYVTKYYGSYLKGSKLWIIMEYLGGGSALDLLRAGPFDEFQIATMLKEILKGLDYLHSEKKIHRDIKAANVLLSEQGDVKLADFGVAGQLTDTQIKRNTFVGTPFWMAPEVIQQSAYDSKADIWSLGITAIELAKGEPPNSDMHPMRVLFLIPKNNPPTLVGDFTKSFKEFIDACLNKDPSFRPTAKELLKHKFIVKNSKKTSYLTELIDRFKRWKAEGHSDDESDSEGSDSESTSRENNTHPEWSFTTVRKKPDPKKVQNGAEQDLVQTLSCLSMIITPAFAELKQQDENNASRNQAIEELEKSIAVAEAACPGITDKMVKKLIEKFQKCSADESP

[14] = target: Serine/threonine-protein kinase mTOR (Homo sapiens) (UniProt P42345); test: Inhibition of recombinant full-length human mTOR assessed as residual activity at 1 uM measured after 40 mins in presence of [gamma33P]ATP by scintillation counting method relative to control
[15] = target: Serine/threonine-protein kinase Nek6 (Homo sapiens) (UniProt Q9HC98); test: Inhibition of recombinant human NEK6 (2 to end residues) assessed as residual activity at 1 uM using FLAKSFGSPNRAYKK as substrate measured after 40 mins in presence of [gamma33P]ATP by scintillation counting method relative to control
Serine/threonine-protein kinase Nek6 (Homo sapiens), sequence (Q9HC98 whole entry, the tested form may be a part): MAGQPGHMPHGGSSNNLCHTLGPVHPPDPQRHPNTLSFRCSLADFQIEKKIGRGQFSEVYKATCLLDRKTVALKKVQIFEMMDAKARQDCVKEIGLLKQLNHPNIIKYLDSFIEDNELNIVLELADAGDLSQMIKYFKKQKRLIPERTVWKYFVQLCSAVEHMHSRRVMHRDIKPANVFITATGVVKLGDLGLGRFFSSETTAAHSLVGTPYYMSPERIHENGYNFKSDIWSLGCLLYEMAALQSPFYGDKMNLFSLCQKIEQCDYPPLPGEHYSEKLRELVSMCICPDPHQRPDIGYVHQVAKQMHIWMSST

Homo sapiens [16] = species: Homo sapiens; test: Inhibition of recombinant human Plk4 S34T mutant (1 to 273 residues) assessed as residual activity at 1 uM using casein as substrate measured after 40 mins in presence of [gamma33P]ATP by scintillation counting method relative to control
Homo sapiens [17] = species: Homo sapiens; test: Inhibition of recombinant full length human PRAK R291E mutant assessed as residual activity at 1 uM using KKLRRTLSVA as substrate measured after 40 mins in presence of [gamma33P]ATP by scintillation counting method relative to control
[18] = test system: Proto-oncogene tyrosine-protein kinase receptor Ret (Homo sapiens), P07949 [V804M]; test: Inhibition of recombinant human Ret V804M mutant (658 to end residues) assessed as residual activity at 1 uM using […] as substrate measured after 40 mins in presence of [gamma33P]ATP by scintillation counting method relative to control
[19] = target: Serine/threonine-protein kinase 32A (Homo sapiens) (UniProt Q8WU08); test: Inhibition of recombinant full-length human STK32A at 1 uM assessed as residual activity at 1 uM using casein as substrate measured after 120 mins in presence of [gamma33P]ATP by scintillation counting method relative to control
Serine/threonine-protein kinase 32A (Homo sapiens), sequence (Q8WU08 whole entry): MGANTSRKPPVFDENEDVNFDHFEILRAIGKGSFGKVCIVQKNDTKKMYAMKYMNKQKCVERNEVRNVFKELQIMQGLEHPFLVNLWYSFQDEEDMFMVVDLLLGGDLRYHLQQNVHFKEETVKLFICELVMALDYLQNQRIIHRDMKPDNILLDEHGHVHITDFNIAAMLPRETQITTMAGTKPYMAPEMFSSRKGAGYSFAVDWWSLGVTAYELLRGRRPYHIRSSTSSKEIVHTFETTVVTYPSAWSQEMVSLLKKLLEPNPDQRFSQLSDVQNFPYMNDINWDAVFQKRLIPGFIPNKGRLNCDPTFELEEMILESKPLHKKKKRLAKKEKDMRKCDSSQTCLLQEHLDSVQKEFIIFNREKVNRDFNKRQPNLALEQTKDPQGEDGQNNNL

Homo sapiens [20] = species: Homo sapiens; test: Inhibition of human activated Tec F514V mutant (174 to end residues) assessed as residual activity at 1 uM using EFPIYDFLPAKKK as substrate measured after 40 mins in presence of [gamma33P]ATP by scintillation counting method relative to control
Mus musculus = species: Mus musculus; test: Inhibition of recombinant full-length mouse PI3K p110alpha/p85alpha at 1 uM assessed as residual activity at 1 uM using phosphatidylinositol-4, 5-bisphosphate as substrate measured after 40 mins by HTRF assay

Compound | Activity [1] | Activity [2] | Activity [3] | Activity [4] | Activity [5] | Activity [6] | Activity [7] | Activity [8] | Activity [9] | Activity [10] | Activity [11] | Activity [12] | Activity [13] | Activity [14] | Activity [15] | Activity (Homo sapiens [16]) | Activity (Homo sapiens [17]) | Activity [18] | Activity [19] | Activity (Homo sapiens [20]) | also measured
N=C1NC(=O)/C(=C\c2ccc(-c3cccc([N+](=O)[O-])c3)o2)S1 | 94% | 99% | 53% | 84% | 97% | 51% | 112% | 96% | 106% | 95% | 105% | 96% | 94% | 95% | 102% | 83% | 71% | 95% | 100% | 96% | Activity (Mus musculus): 97%
C=CCOC(=O)c1cc(-c2ccc(/C=C3/NC(=S)NC3=O)o2)ccc1Cl | 101% | 92% | 73% | 91% | 121% | 74% | 101% | 102% | 117% | 94% | 114% | 89% | 93% | 88% | 98% | 91% | 82% | 98% | 101% | 99% | Activity (Mus musculus): 93%
